Data on 38 compounds can be found in patent publication US7902238B2, “2-aminooxazolines as TAAR1 ligands” (Hoffmann-La Roche Inc., priority 2007, dated 2011).

One test deals with mouse TAAR1 (Mus musculus, UniProt Q923Y8). The experiment in a line: Radioligand binding on membranes of HEK293 cells stably expressing mouse TAAR1.
The next test addresses rat TAAR1 (Rattus norvegicus, UniProt Q923Y9). Description: Radioligand binding on membranes of HEK293 cells stably expressing rat TAAR1.

Sequence of rat TAAR1 (Q923Y9 whole entry): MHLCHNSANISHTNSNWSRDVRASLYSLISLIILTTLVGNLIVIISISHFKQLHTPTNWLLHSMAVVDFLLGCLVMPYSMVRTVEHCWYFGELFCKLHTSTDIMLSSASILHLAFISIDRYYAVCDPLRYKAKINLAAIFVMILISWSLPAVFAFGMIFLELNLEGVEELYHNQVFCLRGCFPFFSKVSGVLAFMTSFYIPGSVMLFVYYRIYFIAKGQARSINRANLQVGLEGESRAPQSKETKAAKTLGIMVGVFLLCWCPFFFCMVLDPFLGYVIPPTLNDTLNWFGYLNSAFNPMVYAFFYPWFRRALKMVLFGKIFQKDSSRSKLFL
Sequence of mouse TAAR1 (Q923Y8 whole entry): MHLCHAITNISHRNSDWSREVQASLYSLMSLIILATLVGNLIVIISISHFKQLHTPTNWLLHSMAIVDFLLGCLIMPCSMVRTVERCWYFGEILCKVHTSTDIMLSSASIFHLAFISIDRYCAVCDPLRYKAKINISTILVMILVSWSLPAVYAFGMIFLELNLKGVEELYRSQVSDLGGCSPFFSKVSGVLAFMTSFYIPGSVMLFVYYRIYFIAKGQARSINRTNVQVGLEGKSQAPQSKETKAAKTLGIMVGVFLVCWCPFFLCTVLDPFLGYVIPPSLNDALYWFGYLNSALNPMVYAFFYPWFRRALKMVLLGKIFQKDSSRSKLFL

Regarding `CN(C[C@H]1COC(N)=N1)c1cccc(Br)c1` [Example 34, (S)-4-{[(3-Bromo-phenyl)-methyl-amino]-methyl}-4,5-dihydro-oxazol-2-ylamine], the inhibition constant Ki at mouse TAAR1 was 1.2 nM; at rat TAAR1, 4.7 nM.
Take `NC1=N[C@@H](CN(Cc2ccccc2)c2ccc(F)cc2)CO1` [Example 53, (S)-4-{[Benzyl-(4-fluoro-phenyl)-amino]-methyl}-4,5-dihydro-oxazol-2-ylamine]: the Ki was determined as 18.7 nM at mouse TAAR1 and 0.9 nM at rat TAAR1.
The matching figures for `CCN(C[C@@H]1COC(N)=N1)c1ccc(Cl)c(Cl)c1` [Example 158, (R)-4-{[(3,4-Dichloro-phenyl)-ethyl-amino]-methyl}-4,5-dihydro-oxazol-2-ylamine]: 2.2 nM and 0.4 nM.
For `CCN(C[C@H]1COC(N)=N1)c1ccc2c(c1)CCC2` [Example 99, (S)-4-[(Ethyl-indan-5-yl-amino)-methyl]-4,5-dihydro-oxazol-2-ylamine], in that order: 6 nM and 3.2 nM.
For `CN(C[C@H]1COC(N)=N1)c1ccc(F)cc1F` [Example 146, (S)-4-{[(2,4-Difluoro-phenyl)-methyl-amino]-methyl}-4,5-dihydro-oxazol-2-ylamine], in that order: 3.1 nM and 6.2 nM.
Take `CCN(C[C@H]1COC(N)=N1)c1ccccc1` [Example 3, (S)-4-[(Ethyl-phenyl-amino)-methyl]-4,5-dihydro-oxazol-2-ylamine]: the Ki at mouse TAAR1 and at rat TAAR1 was 1 nM throughout.
Take `NC1=N[C@@H](CNc2ccccc2Cl)CO1` [Example 119, (S)-4-[(2-Chloro-phenylamino)-methyl]-4,5-dihydro-oxazol-2-ylamine]: the Ki on mouse TAAR1 came to 1.1 nM; on rat TAAR1, 4.2 nM.
Take `CCN(C[C@H]1COC(N)=N1)c1cccc(Br)c1` [Example 37, (S)-4-{[(3-Bromo-phenyl)-ethyl-amino]-methyl}-4,5-dihydro-oxazol-2-ylamine]: the Ki on mouse TAAR1 worked out at 9.7 nM; on rat TAAR1 it was 1.8 nM.
For `CN(C[C@@H]1COC(N)=N1)c1ccc2ccccc2c1` [Example 162, (R)-4-[(Methyl-naphthalen-2-yl-amino)-methyl]-4,5-dihydro-oxazol-2-ylamine], in that order: 7.7 nM and 15.5 nM.
For `CCN(C[C@@H]1COC(N)=N1)c1ccc2ccccc2c1` [Example 163, (R)-4-[(Ethyl-naphthalen-2-yl-amino)-methyl]-4,5-dihydro-oxazol-2-ylamine], in that order: 2.9 nM and 5.2 nM.
Regarding `NC1=N[C@@H](CNc2cccc(Cl)n2)CO1` [Example 135, ((S)-2-Amino-4,5-dihydro-oxazol-4-ylmethyl)-(6-chloro-pyridin-2-yl)-amine], the results for the Ki on mouse TAAR1 and at rat TAAR1 were 8.7 nM and 48.9 nM, respectively.
For `CN(C[C@@H]1COC(N)=N1)c1ccc(F)cc1` [Example 128, (R)-4-{[(4-Fluoro-phenyl)-methyl-amino]-methyl}-4,5-dihydro-oxazol-2-ylamine], in that order: 4.7 nM and 11.6 nM.
For `COc1cc(N(C)C[C@@H]2COC(N)=N2)ccc1Cl` [Example 140, (R)-4-{[(4-Chloro-3-methoxy-phenyl)-methyl-amino]-methyl}-4,5-dihydro-oxazol-2-ylamine], in that order: 2.6 nM and 4.1 nM.
With `CCN(C[C@@H]1COC(N)=N1)c1ccc(Cl)c(OC)c1` [Example 141, (R)-4-{[(4-Chloro-3-methoxy-phenyl)-ethyl-amino]-methyl}-4,5-dihydro-oxazol-2-ylamine], the inhibition constant Ki at mouse TAAR1 stood at 3.4 nM; on rat TAAR1 it was 0.9 nM.
For `NC1=N[C@@H](CN(Cc2ccccc2)c2ccc(Cl)cc2)CO1` [Example 55, (S)-4-[{Benzyl-(4-chloro-phenyl)-amino]-methyl}-4,5-dihydro-oxazol-2-ylamine], in that order: 28.8 nM and 0.6 nM.
The matching figures for `CCN(C[C@H]1COC(N)=N1)c1cc(Cl)cc(Cl)c1` [Example 165, (S)-4-{[(3,5-Dichloro-phenyl)-ethyl-amino]-methyl}-4,5-dihydro-oxazol-2-ylamine]: 1.4 nM and 0.9 nM.
For `CCN(C[C@@H]1COC(N)=N1)c1ccccc1` [Example 1, (R)-4-[(Ethyl-phenyl-amino)-methyl]-4,5-dihydro-oxazol-2-ylamine], in that order: 0.9 nM and 1.9 nM.
For `CCN(C[C@H]1COC(N)=N1)c1cc(F)cc(C(F)(F)F)c1` [Example 109, (S)-4-{[Ethyl-(3-fluoro-5-trifluoromethyl-phenyl)-amino]-methyl}-4,5-dihydro-oxazol-2-ylamine], the figures for the Ki at mouse TAAR1 and on rat TAAR1 were 2.5 nM and 1.7 nM, respectively.
For `CCN(C[C@@H]1COC(N)=N1)c1cc(F)cc(C(F)(F)F)c1` [Example 167, (R)-4-{[Ethyl-(3-fluoro-5-trifluoromethyl-phenyl)-amino]-methyl}-4,5-dihydro-oxazol-2-ylamine], in that order: 5.1 nM and 9.7 nM.
For `CCN(C[C@H]1COC(N)=N1)c1ccc(Br)cc1` [Example 32, (S)-4-{[(4-Bromo-phenyl)-ethyl-amino]-methyl}-4,5-dihydro-oxazol-2-ylamine], the values for the inhibition constant Ki on mouse TAAR1 and on rat TAAR1 were 2.8 nM and 0.6 nM, respectively.
For `CN(C[C@H]1COC(N)=N1)c1ccc(C(F)(F)F)cc1` [Example 134, (S)-4-{[Methyl-(4-trifluoromethyl-phenyl)-amino]-methyl}-4,5-dihydro-oxazol-2-ylamine], in that order: 5.7 nM and 3.6 nM.
For `CCN(C[C@H]1COC(N)=N1)c1ccc(C(F)(F)F)cc1C` [Example 175, (S)-4-{[Ethyl-(2-methyl-4-trifluoromethyl-phenyl)-amino]-methyl}-4,5-dihydro-oxazol-2-ylamine], in that order: 9.2 nM and 8.3 nM.
As to `Cc1ccc(NC[C@H]2COC(N)=N2)c(F)c1` [Example 117, (S)-4-[(2-Fluoro-4-methyl-phenylamino)-methyl]-4,5-dihydro-oxazol-2-ylamine], the Ki at mouse TAAR1 came to 2.8 nM; at rat TAAR1, 18.2 nM.
For `CCN(C[C@@H]1COC(N)=N1)c1ccc(Cl)cc1` [Example 126, (R)-4-{[(4-Chloro-phenyl)-ethyl-amino]-methyl}-4,5-dihydro-oxazol-2-ylamine], in that order: 1.6 nM and 1.2 nM.
Take `COc1cc(N(C)C[C@H]2COC(N)=N2)ccc1F` [Example 40, (S)-4-{[(4-Fluoro-3-methoxy-phenyl)-methyl-amino]-methyl}-4,5-dihydro-oxazol-2-ylamine]: the values for the inhibition constant (Ki) at mouse TAAR1 and on rat TAAR1 were 1.1 nM and 2 nM, respectively.
Regarding `CCN(C[C@H]1COC(N)=N1)c1cccc(C)c1` [Example 65, (S)-4-[(Ethyl-m-tolyl-amino)-methyl]-4,5-dihydro-oxazol-2-ylamine], the Ki came out at 1.9 nM at mouse TAAR1 and 2.7 nM on rat TAAR1.
Turning to `CCN(C[C@H]1COC(N)=N1)c1ccccc1F` [Example 107, (S)-4-{[Ethyl-(2-fluoro-phenyl)-amino]-methyl}-4,5-dihydro-oxazol-2-ylamine], the inhibition constant Ki was determined as 3.9 nM on mouse TAAR1 and 14.9 nM on rat TAAR1.
`COc1cc(N(C)C[C@H]2COC(N)=N2)ccc1Cl` [Example 27, (S)-4-{[(4-Chloro-3-methoxy-phenyl)-methyl-amino]-methyl}-4,5-dihydro-oxazol-2-ylamine]: the Ki is 7.3 nM at mouse TAAR1 and 1.6 nM at rat TAAR1.
As for `CC(C)N(C[C@@H]1COC(N)=N1)c1ccc(Cl)c(Cl)c1` [Example 159, (R)-4-{[(3,4-Dichloro-phenyl)-isopropyl-amino]-methyl}-4,5-dihydro-oxazol-2-ylamine], the Ki on mouse TAAR1 amounted to 5.3 nM; on rat TAAR1 it was 1.4 nM.
For `CC(C)N(C[C@H]1COC(N)=N1)c1ccc(Cl)c(Cl)c1` [Example 15, (S)-4-{[(3,4-Dichloro-phenyl)-isopropyl-amino]-methyl}-4,5-dihydro-oxazol-2-ylamine], in that order: 22.4 nM and 0.8 nM.
Consider `COc1cc(N(C)C[C@@H]2COC(N)=N2)ccc1F` [Example 138, (R)-4-{[(4-Fluoro-3-methoxy-phenyl)-methyl-amino]-methyl}-4,5-dihydro-oxazol-2-ylamine], for which the Ki at mouse TAAR1 stood at 4.4 nM; on rat TAAR1, 9.3 nM.
On to `CCN(C[C@H]1COC(N)=N1)c1ccc(Cl)cc1F` [Example 95, (S)-4-{[(4-Chloro-2-fluoro-phenyl)-ethyl-amino]-methyl}-4,5-dihydro-oxazol-2-ylamine], for which the Ki at rat TAAR1 stood at 1.5 nM.
On to `Cc1ccc(N(C)C[C@H]2COC(N)=N2)c(F)c1` [Example 113, (S)-4-{[(2-Fluoro-4-methyl-phenyl)-methyl-amino]-methyl}-4,5-dihydro-oxazol-2-ylamine], for which the inhibition constant (Ki) on mouse TAAR1 is 2.8 nM; on rat TAAR1, 6.2 nM.
For the compound `CCc1cccc(N(CC)C[C@H]2COC(N)=N2)c1` [Example 92, (S)-4-{[Ethyl-(3-ethyl-phenyl)-amino]-methyl}-4,5-dihydro-oxazol-2-ylamine], affinity at rat TAAR1 was put at a Ki of 37000 nM.
At mouse TAAR1, `CN(C[C@H]1COC(N)=N1)c1ccc2ccccc2c1` [Example 77, (S)-4-[(Methyl-naphthalen-2-yl-amino)-methyl]-4,5-dihydro-oxazol-2-ylamine] displayed a Ki of 0.4 nM.
On to `CCN(C[C@H]1COC(N)=N1)c1cccc(Cl)c1` [Example 83, (S)-4-{[(3-Chloro-phenyl)-ethyl-amino]-methyl}-4,5-dihydro-oxazol-2-ylamine], for which the Ki on rat TAAR1 came to 1 nM.
The same measure, in the same setting: to `CCc1ccc(N(CC)C[C@H]2COC(N)=N2)cc1` [Example 94, (S)-4-{[Ethyl-(4-ethyl-phenyl)-amino]-methyl}-4,5-dihydro-oxazol-2-ylamine] belongs 51000 nM; to `NC1=N[C@@H](CNc2cccc(Cl)c2)CO1` [Example 87, (S)-4-[(3-Chloro-phenylamino)-methyl]-4,5-dihydro-oxazol-2-ylamine], 7.3 nM.
